This is an account of results in patent US20240166643A1, “IMIDAZO[1,2-A]PYRIDINE COMPOUNDS AND THEIR USE IN THERAPY” (Imperial College Innovations Limited, priority 2020, published 2024).

Like-named read-outs stand apart in the source and are kept apart here.

Data set [1] concerns BL-41 cells. Description: Metabolic activity assay (MTS assay) in BL-41 cell line. As to conditions: Homo sapiens, 72 h. Format: cell-based. For orientation: Tetrazolium dyes change colour on reduction, which living cells bring about.
The test system of data set [2] is SU-DHL-10 cells. Put plainly: Cell cytotoxicity in SU-DHL-10 cell line (CellTiter-Glo). Format: cell-based. As to conditions: Homo sapiens, SU-DHL10; CellTiter-Glo, 48 h; read-out: SU-DHL-10 EC50. For orientation: In ATP-based viability assays light output follows the ATP content of the culture.
Data set [3] relates to BL-41 cells. Description: CellTiter-Blue assay, BL-41. To be noted: Homo sapiens, BL41 cell line, 72 hours. Format: cell-based. As for the experimental part:
(§1) Assay (d): CellTiter-Blue® Assay
(§2) BL-41, Ramos, Raji and A20 cells (obtained from Cell Services at the Crick Institute; cell type of BL-41, Ramos, Raji: Burkitt's Lymphoma; cell type of A20: murine B cell lymphoma cell line) were grown in RPMI-1640 media in 5% CO2 (supplemented with 10% FBS). The cells were seeded in 96-well plates, 24 h prior to treatment. Cell suspensions were prepared by adjusting the cell density to the appropriate concentration (as stated in the Table 9 below) and 50 μL of the cell suspension was transferred to wells B-G in columns 2-11 of a 96-well plate. […]
(§3) 72 hours later, 20 μl/well CellTiter-Blue® (G8081, Promega) were added to the plates according to the manufacturer's protocol, the plate was incubated at 37° C. for 2 or 3-4 h (A20, Ramos and Raji: 2 h; BL-41 and EL-4: 3-4 h), followed by measuring the absorbance per well at 570 nm using an EnVision plate reader. […] The metabolic activity was calculated as a percentage relative to the positive control. The EC50 values were calculated using GraphPad Prism.

For data set [4], the system named is EL4 cells. Put plainly: CellTiter-Blue assay, EL4. To be noted: EL4 cell line, 72 hours. Format: cell-based. The procedure:
as §1
Cell suspensions were prepared by adjusting the cell density to the appropriate concentration (as stated in the Table 10 below) and 50 μL of the cell suspension was transferred to wells B-G in columns 2-11 of a 96-well plate.
For each the BL-41, Ramos, Raji, A20 cell lines and EL4, twenty-four hours later, 50 μL of the growth media for the respective cell line (positive control), a mix of Puromycin and Staurosporine (negative controls, final concentration 10 μg/mL and 1 μM respectively) or different concentrations of each Example compound being tested (dilution factor=3, starting at μM, final concentration in the plate starting from 10 μM) were prepared and added to a well of the 96-well plate. The plate was incubated at 37° C. with 5% CO2 level.
72 hours later, 20 μl/well CellTiter-Blue® (G8081, Promega) were added to the plates according to the manufacturer's protocol, the plate was incubated at 37° C. for 2 or 3-4 h (A20, Ramos and Raji: 2 h; BL-41 and EL-4: 3-4 h), followed by measuring the absorbance per well at 570 nm using an EnVision plate reader. The negative control values were subtracted from every value. The metabolic activity was calculated as a percentage relative to the positive control. The EC50 values were calculated using GraphPad Prism.
Background: Alamar Blue is a resazurin reagent that responds to reducing activity.

In data set [5] the test system is Ramos cells. Description: CellTiter-Blue assay, Ramos. Format: cell-based. As to conditions: Homo sapiens, Ramos cell line, 72 hours. As for the experimental part: as §1, §2, §3
Data set [6] deals with Raji cells. Put plainly: CellTiter-Blue assay, Raji. To be noted: Homo sapiens, Raji cell line, 72 hours. Format: cell-based. The procedure:
as §1, §2, §3

Data set [7] deals with A20 cells. Description: CellTiter-Blue assay, A20. Format: cell-based, murine. As to conditions: Mus musculus, A20 cell line, 72 hours. The procedure: as §1, §2, §3
Data set [8] can be described thus: Rat clearance and bioavailability (iv and oral dosing). Format: in vivo. As to conditions: male, Sprague-Dawley, plasma, administered as a single compound; for half-life: read-out: Rat iv t1/2 (converted).
Data set [9] has as its system Plasmodium falciparum 3D7. Description: SYBR Green assay, Plasmodium falciparum strain 3D7. Format: cell-based. As to conditions: P. falciparum strain 3D7, 96 h incubation, read-out: Pf EC50 strain 3D7.
The test system of data set [10] is DOHH-2 tumor cells. Description: Mouse xenograft, subcutaneous DOHH-2 Lymphoma Model. Format: in vivo. As to conditions: compared to vehicle. The procedure:
Assay (i): Mouse Xenograft Protocol
The in vivo efficacy was assess in a subcutaneous xenograft DOHH-2 Lymphoma Model using Female 6-8 week old CB17/SCID Mice. […] The test compound administration started once the mean tumor size reached approximately 100-150 mm3. Compounds were administered either IP (vehicle 58% Na2HPO4 buffer (10 mM) (pH4.5)+40% PEG400+2% DMSO) or orally (vehicle Na2HPO4 buffer (10 mM) (pH 4.5)+0.2% tween 80). Tumor volumes were measured in two dimensions using a caliper, and the volume expressed in mm3 using the formula: V=(L×W×W)/2, where V is tumor volume, L is tumor length (the longest tumor dimension) and W is tumor width (the longest tumor dimension perpendicular to L).
Mice were dosed with Example 2 orally (50 mg/kg) once a day for 9 consecutive days (FIG. 5a), or Example 2 was dosed intraperitonally (25 mg/kg) in a cycle consisting of administration twice a day for three days followed by a four day no-dosing period (FIG. 5b). The cycle was repeated three times.
Mice were dosed with Example 129 intraperitonally (25 mg/kg) in a cycle consisting of administration twice a day for three days followed by a four day no-dosing period (Figure Sc). The cycle was repeated three times.
The protocol and any amendment(s) or procedures involving the care and use of animals in this study were reviewed and approved by the Institutional Animal Care and Use Committee (IACUC) of CrownBio prior to execution. During the study, the care and use of animals was conducted in accordance with the regulations of the Association for Assessment and Accreditation of Laboratory Animal Care (AAALAC).

Data set [11] can be described thus: in vitro. To be noted: male, Sprague-Dawley, rat, pooled cryopreserved rat hepatocytes, pH 7.4.
Data set [12] addresses Human NMT1 (HsNMT1) (Homo sapiens, UniProt P30419). Description: biochemical.
Data set [13] concerns the target Plasmodium vivax (Pv) NMT (Plasmodium vivax (strain Salvador I), UniProt A5K1A2). Put plainly: biochemical.
In data set [14] the test system is P. falciparum Pf3D7^0087/N9. Put plainly: Mouse malaria model, NODscidIL2Rγnull mice engrafted with human erythrocytes. To be noted: for activity compared to untreated control mice: day 7 post-infection.
The target of data set [15] is Plasmodium falciparum NMT (Plasmodium falciparum (isolate 3D7), UniProt Q8ILW6). To be noted: cited from earlier work.

Sequence of Plasmodium vivax (Pv) NMT (A5K1A2 1-410): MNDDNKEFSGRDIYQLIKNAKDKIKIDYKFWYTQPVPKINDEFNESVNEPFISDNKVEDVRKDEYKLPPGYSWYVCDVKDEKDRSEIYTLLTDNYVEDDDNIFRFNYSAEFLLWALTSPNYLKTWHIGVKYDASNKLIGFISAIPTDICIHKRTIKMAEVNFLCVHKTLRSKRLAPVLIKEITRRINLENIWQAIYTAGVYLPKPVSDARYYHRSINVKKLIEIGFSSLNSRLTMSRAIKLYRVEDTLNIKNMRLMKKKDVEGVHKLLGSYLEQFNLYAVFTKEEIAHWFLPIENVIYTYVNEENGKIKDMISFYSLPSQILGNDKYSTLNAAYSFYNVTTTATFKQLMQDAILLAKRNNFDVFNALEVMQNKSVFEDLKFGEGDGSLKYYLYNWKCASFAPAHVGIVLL
Sequence of Human NMT1 (HsNMT1) (P30419 whole entry, looked up): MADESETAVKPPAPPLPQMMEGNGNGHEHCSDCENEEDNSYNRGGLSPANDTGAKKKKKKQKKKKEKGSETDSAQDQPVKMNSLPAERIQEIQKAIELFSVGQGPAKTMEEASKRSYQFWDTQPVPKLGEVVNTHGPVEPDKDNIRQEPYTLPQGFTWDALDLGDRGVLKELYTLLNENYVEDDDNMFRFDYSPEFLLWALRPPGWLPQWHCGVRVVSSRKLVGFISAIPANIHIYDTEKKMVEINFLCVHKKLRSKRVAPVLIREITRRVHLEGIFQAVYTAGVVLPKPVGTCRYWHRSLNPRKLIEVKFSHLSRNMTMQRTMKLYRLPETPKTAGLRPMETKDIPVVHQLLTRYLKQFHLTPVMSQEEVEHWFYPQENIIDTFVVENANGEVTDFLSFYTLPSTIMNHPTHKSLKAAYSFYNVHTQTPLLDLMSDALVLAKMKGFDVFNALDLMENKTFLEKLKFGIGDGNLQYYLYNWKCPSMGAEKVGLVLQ

Regarding `C[C@H]1CN(C)CCN1c1ncc(Cl)c(N2CC(C(=O)NC(C)(C)c3cnc4ccccn34)C2)n1` [Example 2, 1-(5-chloro-2-[(2S)-2,4-dimethylpiperazin-1-yl]pyrimidin-4-yl)-N-(2-{imidazo[1,2-a]pyridin-3-yl}propan-2-yl)azetidine-3-carboxamide], the EC50 – broadly, the concentration needed to bring the measured effect to its halfway point – came out at 220 nM in data set [1]; 51 nM in [2]; 557 nM in data set [3]; 139 nM in data set [4]; 218 nM in [5]; 556 nM in [6]. For the same molecule, the EC50 in data set [7] was 600 nM; in data set [9], 2.4 nM. In addition, the half-life in [8] (iv 1 mg/kg) is 3.5 h. Besides, the bioavailability – broadly, the share of a dose that reaches the circulation, judged against a reference dose that is usually intravenous – in data set [8] (oral 10 mg/kg) was found to be 28%. Moreover, the tumour volume entry is “significant reduction in tumour volume” in data set [10] (intraperitoneally 25 mg/kg twice a day for three days then four day no-dosing, cycle repeated three times) and “significant reduction in tumour volume” in data set [10] (orally 50 mg/kg once a day for 9 consecutive days). The molecule further showed a half-life at 1 µM in data set [11] of 1.52 h. Besides, the IC50 – broadly, the concentration needed to halve the response being measured – was 2.7 nM in [12] and 4.1 nM in data set [13].

In the case of `C[C@@H]1CN(c2ncc(Cl)c(N3CC(C(=O)NC(C)(C)c4cnc5ccccn45)C3)n2)CCN1C` [Example 3, 1-(5-chloro-2-[(3R)-3,4-dimethylpiperazin-1-yl]pyrimidin-4-yl}-N-(2-{imidazo[1,2-a]pyridin-3-yl}propan-2-yl)azetidine-3-carboxamide], the EC50 in data set [1] was found to be 560 nM; in [2], 624 nM; in data set [3], 218 nM; in data set [4] it was 1240 nM; in data set [5], 2290 nM; in data set [6] it was 1100 nM. Also, the EC50 was 6880 nM in data set [7] and 11 nM in data set [9]. Moreover, in data set [8] (iv 2 mg/kg), the half-life is 4.3 h. Besides, the bioavailability in data set [8] (oral 20 mg/kg) is 24%. In addition, the half-life at 1 µM in data set [11] worked out at 2.05 h. Besides, in data set [13], the IC50 was 3.4 nM. For the same molecule, the “activity compared to untreated control mice” value was 4% in [14] (4×3 mg/kg p.o.), 37% in [14] (4×10 mg/kg p.o.) and above 99.9% in data set [14] (4×30 mg/kg p.o.). Further, the “mice / smears parasite free” value in [14] (4×30 mg/kg p.o., day 7) is “all mice were parasite-free”.

Take `Cc1cnc(CNC(=O)C2CN(c3nc(NCCN(C)C)ncc3Cl)C2)cn1` [PF-03531814, 1-(5-chloro-2-{[2-(dimethylamino)ethyl]amino}pyrimidin-4-yl)-N-[(5-methylpyrazin-2-yl)methyl]azetidine-3-carboxamide]: in [15], the “selective activity for Plasmodium falciparum NMT over both human NMTs” value is given as “selective activity”.
